Source: patent US6436977B1, “Dosing regimens for lasofoxifene” (Pfizer Inc., priority 1999, dated 2002)
Read-outs that look alike come from different tables or passages of the source.

Assay: Plasma levels of lasofoxifene after a single oral dose in healthy postmenopausal women (LC-MS-MS)
Format: in vivo, human
Settings: for concentration at 1 h: 1 hour after dosing; for concentration at 2 h: 2 hours after dosing; for concentration at 4 h: 4 hours after dosing; for concentration at 8 h: 8 hours after dosing; for concentration at 12 h: 12 hours after dosing; for concentration at 24 h: 24 hours after dosing; for concentration at 48 h: 48 hours after dosing; for concentration at 72 h: 72 hours after dosing; for concentration at 120 h: 120 hours after dosing; for concentration at 0.5 h: .5 hours after dosing
Protocol: A dose of 0.8 mg of lasofoxifene was administered to 12 healthy, postmenopausal women and blood samples were analyzed periodically as shown in Table 1.
A 1.0 ml sample of human plasma was analyzed for lasofoxifene according to CEDRA's Procedure TM-234 (CEDRA's address). Internal standard used for this procedure was a pentadeuterated lasofoxifene. The plasma sample containing lasofoxifene and the internal standard was extracted with MTBE. Following centrifugation, the organic layer was transferred to another tube and evaporated. An aliquot of the reconstituted sample extract was then injected onto a SCIEX API^III-PLUS LC-MS-MS instrument equipped with a short ion exchange HPLC column. Peak areas of the m/z 414→97.9 daughter ion of lasofoxifene were measured against the peak areas of the mlz 419→97.9 daughter of the internal standard. Quantitation was performed using a 1/x weighted least squares regression line generated from spiked plasma calibration samples.
The procedure of Example 1 was repeated with a dose of 10-mg lasofoxifene administered to 8 healthy postmenopausal women. Plasma levels for lasofoxifene are shown for 672 hours in Table 2.

[1] = female, human, plasma, single oral 10 mg dose, healthy post menopausal women, read-out: Mean plasma concentration, na Lasofoxifene per ml plasma
[2] = female, human, plasma, single oral dose 0.8 mg, healthy post menopausal women, read-out: Mean plasma concentration, ng Lasofoxifene per ml plasma

With Oc1ccc2c(c1)CC[C@H](c1ccccc1)[C@@H]2c1ccc(OCCN2CCCC2)cc1 [lasofoxifene, (−)-cis-6-phenyl-5-[4-(2-pyrrolidin-1-yl-ethoxy)-phenyl]-5,6,7,8-tetrahydronaphthalen-2-ol, D-tartrate] the “duration of therapeutically effective dose (level)” value (doses from 10 to 20 mg, see Table 2) was “up to 30 days”, the concentration at 168 h (female, human, plasma, oral, single dose of 0.8 mg, healthy women, after 168 hours (1 week), read-out: blood level (concentration)) was about 0.3 ng/mL and the concentration at 0 h (female, human, plasma, single oral 10 mg dose, healthy post menopausal women, 0 hours after dosing, read-out: Mean plasma concentration, na Lasofoxifene per ml plasma) was 0 ng/mL. It also gave a concentration at 1 h [1] of 4.42 ng/mL, a concentration at 2 h [1] of 5.64 ng/mL and a concentration at 4 h [1] of 8.46 ng/mL. It also gave a concentration at 8 h [1] of 10.4 ng/mL, a concentration at 12 h [1] of 10.2 ng/mL and a concentration at 24 h [1] of 8.35 ng/mL. It also gave a concentration at 48 h [1] of 7.16 ng/mL, a concentration at 72 h [1] of 5.97 ng/mL and a concentration at 120 h [1] of 4.56 ng/mL. For the same compound, the concentration at 168 h (female, human, plasma, single oral 10 mg dose, healthy post menopausal women, 168 hours after dosing, read-out: Mean plasma concentration, na Lasofoxifene per ml plasma) was 3.74 ng/mL, the concentration at 216 h (female, human, plasma, single oral 10 mg dose, healthy post menopausal women, 216 hours after dosing, read-out: Mean plasma concentration, na Lasofoxifene per ml plasma) was 2.88 ng/mL and the concentration at 264 h (female, human, plasma, single oral 10 mg dose, healthy post menopausal women, 264 hours after dosing, read-out: Mean plasma concentration, na Lasofoxifene per ml plasma) was 2.27 ng/mL. It also gave a concentration at 336 h (female, human, plasma, single oral 10 mg dose, healthy post menopausal women, 336 hours after dosing, read-out: Mean plasma concentration, na Lasofoxifene per ml plasma) of 1.6 ng/mL, a concentration at 408 h (female, human, plasma, single oral 10 mg dose, healthy post menopausal women, 408 hours after dosing, read-out: Mean plasma concentration, na Lasofoxifene per ml plasma) of 1.05 ng/mL and a concentration at 480 h (female, human, plasma, single oral 10 mg dose, healthy post menopausal women, 480 hours after dosing, read-out: Mean plasma concentration, na Lasofoxifene per ml plasma) of 0.75 ng/mL. It also gave a concentration at 576 h (female, human, plasma, single oral 10 mg dose, healthy post menopausal women, 576 hours after dosing, read-out: Mean plasma concentration, na Lasofoxifene per ml plasma) of 0.5 ng/mL, a concentration at 672 h (female, human, plasma, single oral 10 mg dose, healthy post menopausal women, 672 hours after dosing, read-out: Mean plasma concentration, na Lasofoxifene per ml plasma) of 0.31 ng/mL and a concentration at 0.5 h [1] of 2.33 ng/mL. The concentration at 1 h [2] was 0.32 ng/mL, the concentration at 2 h [2] was 0.37 ng/mL and the concentration at 4 h [2] was 0.46 ng/mL. The concentration at 8 h [2] was 0.72 ng/mL, the concentration at 12 h [2] was 0.73 ng/mL and the concentration at 24 h [2] was 0.64 ng/mL. The concentration at 48 h [2] was 0.56 ng/mL, the concentration at 72 h [2] was 0.49 ng/mL and the concentration at 120 h [2] was 0.4 ng/mL. For the same compound, the concentration at 168 h (female, human, plasma, single oral dose 0.8 mg, healthy post menopausal women, 168 hours after dosing, read-out: Mean plasma concentration, ng Lasofoxifene per ml plasma) was 0.34 ng/mL, the concentration at 0.5 h [2] was 0.13 ng/mL and the initial blood level (single dose of 0.8 mg, healthy women, within a few hours) was 0.7 ng/mL.
